Measured values as given in PubChem BioAssay AID330 (DTP/NCI, 2004).
Values joined by “and” are separate entries in the source; they are usually repeats but may differ in a detail not shown here. Equal values may be shown once. Toxic doses and inconclusive results are not listed. How the source made its calls: active means survival T/C of 150% or more; inactive means T/C below 125% in these data.

Test system: P388 leukemia ip, CD2F1 mice, survival T/C
Assay: NCI In Vivo Anticancer Drug Screen. Data for tumor model P388 Leukemia (intraperitoneal) in CD2F1 (CDF1) mice
Settings: endpoint: median survival time, higher = longer survival
Procedure, shortened: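 Mice carrying the transplanted tumor received test compound or vehicle. Survival was recorded in each group, and the value is the treated-group measurement divided by that of the vehicle-treated control group.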

[1] = dose: 50.0 mg/kg/injection, schedule: Q01DX005 (ip), vehicle: Klucel (hydroxypropylcellulose) (HPC)
[2] = dose: 200.0 mg/kg/injection, schedule: Q01DX005 (ip), vehicle: Klucel (hydroxypropylcellulose) (HPC)
[3] = dose: 50.0 mg/kg/injection, schedule: Q01DX009 (ip), vehicle: saline
[4] = dose: 100.0 mg/kg/injection, schedule: Q01DX009 (ip), vehicle: saline
[5] = dose: 12.5 mg/kg/injection, schedule: Q01DX009 (ip), vehicle: saline with Tween-80
[6] = dose: 25.0 mg/kg/injection, schedule: Q01DX009 (ip), vehicle: saline with Tween-80
[7] = dose: 50.0 mg/kg/injection, schedule: Q01DX009 (ip), vehicle: saline with Tween-80

Measured: T/C

CC1(C)S[C@@H]2[C@H](NC(=O)C3(N)CCCCC3)C(=O)N2[C@H]1C(=O)O
inactive: [1] 103 % of control | dose: 100.0 mg/kg/injection, schedule: Q01DX005 (ip), vehicle: Klucel (hydroxypropylcellulose) (HPC) 103 % of control | [2] 102 % of control

CC(=O)Oc1cc2c(cc1OC(C)=O)C(=O)CCC=C2
inactive: dose: 100.0 mg/kg/injection, schedule: Q04DX003 (ip), vehicle: saline sonified 110 % of control | dose: 200.0 mg/kg/injection, schedule: Q04DX003 (ip), vehicle: saline sonified 100 % of control | dose: 400.0 mg/kg/injection, schedule: Q04DX003 (ip), vehicle: saline sonified 100 % of control

COCC(=O)OC
inactive: dose: 25.0 mg/kg/injection, schedule: Q01DX009 (ip), vehicle: saline 97 % of control | [3] 100 % of control | [4] 98 % of control | dose: 200.0 mg/kg/injection, schedule: Q01DX009 (ip), vehicle: saline 92 % of control

[O-][n+]1c(CCl)nc2ccccc2c1-c1ccccc1F
inactive: [5] 103 % of control | [6] 103 % of control | [7] 103 % of control

O=c1nc(Cl)c2ccccc2c2ccccc12
inactive: dose: 100.0 mg/kg/injection, schedule: Q01DX001 (ip), vehicle: saline with Tween-80 96 % of control | dose: 100.0 mg/kg/injection, schedule: Q01DX005 (ip), vehicle: saline with Tween-80 96 % of control | dose: 200.0 mg/kg/injection, schedule: Q01DX001 (ip), vehicle: saline with Tween-80 97 % of control | dose: 200.0 mg/kg/injection, schedule: Q01DX005 (ip), vehicle: saline with Tween-80 97 % of control | dose: 400.0 mg/kg/injection, schedule: Q01DX001 (ip), vehicle: saline with Tween-80 87 % of control | dose: 400.0 mg/kg/injection, schedule: Q01DX005 (ip), vehicle: saline with Tween-80 87 % of control

Cc1cccc2nccn12
inactive: dose: 6.25 mg/kg/injection, schedule: Q01DX009 (ip), vehicle: saline with Tween-80 97 % of control | [5] 95 % of control | [6] 97 % of control | [7] 100 % of control

CC(=O)NC[Si](C)(C)C
inactive: dose: 60.0 mg/kg/injection, schedule: Q01DX005 (ip), vehicle: saline 93 % of control | dose: 120.0 mg/kg/injection, schedule: Q01DX005 (ip), vehicle: saline 96 % of control | dose: 240.0 mg/kg/injection, schedule: Q01DX005 (ip), vehicle: saline 103 % of control

CCCCCCCCCCCC1=C(O)C(=O)C(CC2=C(O)C(=O)C(CCCCCCCCCCC)=C(O)C2=O)=C(O)C1=O
inactive: dose: 25.0 mg/kg/injection, schedule: Q01DX005 (ip), vehicle: Klucel + Tween-80 97 % of control | [1] 86 % of control | dose: 50.0 mg/kg/injection, schedule: Q01DX005 (ip), vehicle: Klucel + Tween-80 91 % of control | dose: 100.0 mg/kg/injection, schedule: Q01DX005 (ip), vehicle: Klucel + Tween-80 91 % of control | [2] 89 % of control

C(/CSC/C=N/Nc1ccccc1)=N\Nc1ccccc1
inactive: [3] 103 % of control | [4] 103 % of control

Cc1cc(C)c(S(=O)(=O)Sc2nnnn2C)c(C)c1
inactive: dose: 12.5 mg/kg/injection, schedule: Q01DX009 (ip), vehicle: Klucel (hydroxypropylcellulose) (HPC) 102 % of control | dose: 25.0 mg/kg/injection, schedule: Q01DX009 (ip), vehicle: Klucel (hydroxypropylcellulose) (HPC) 104 % of control | dose: 50.0 mg/kg/injection, schedule: Q01DX009 (ip), vehicle: Klucel (hydroxypropylcellulose) (HPC) 95 % of control and 98 % of control | dose: 200.0 mg/kg/injection, schedule: Q01DX009 (ip), vehicle: Klucel (hydroxypropylcellulose) (HPC) 98 % of control

CC(=O)CN1CCSC1=N
inactive: dose: 100.0 mg/kg/injection, schedule: Q01DX001 (ip), vehicle: saline 97 % of control

CC1=C(C(=O)Nc2ccccc2)C(c2ccc(C)cc2)C(C(=O)Nc2ccccc2)=C(C)N1
inactive: dose: 100.0 mg/kg/injection, schedule: Q04DX002 (ip), vehicle: saline with Tween-80 107 % of control | dose: 200.0 mg/kg/injection, schedule: Q04DX002 (ip), vehicle: saline with Tween-80 106 % of control | dose: 400.0 mg/kg/injection, schedule: Q04DX002 (ip), vehicle: saline with Tween-80 101 % of control
